Test results taken from ChEMBL document CHEMBL4507261, “Data for DCP probe A-192621” (2021).

Experiments:
[1] = target: Serine/threonine-protein kinase PLK4 (Homo sapiens) (UniProt O00444); details: Compound concentration 1000.0 nM
[2] = target: Protein kinase C iota type (Homo sapiens) (UniProt P41743); details: Compound concentration 1000.0 nM
[3] = test system: Phosphatidylinositol 4,5-bisphosphate 3-kinase catalytic subunit alpha isoform (Homo sapiens), P42336 [E545A]; details: Compound concentration 1000.0 nM
[4] = target: SRSF protein kinase 1 (Homo sapiens) (UniProt Q96SB4); details: Compound concentration 1000.0 nM
SRSF protein kinase 1 (Homo sapiens), sequence (Q96SB4 whole entry): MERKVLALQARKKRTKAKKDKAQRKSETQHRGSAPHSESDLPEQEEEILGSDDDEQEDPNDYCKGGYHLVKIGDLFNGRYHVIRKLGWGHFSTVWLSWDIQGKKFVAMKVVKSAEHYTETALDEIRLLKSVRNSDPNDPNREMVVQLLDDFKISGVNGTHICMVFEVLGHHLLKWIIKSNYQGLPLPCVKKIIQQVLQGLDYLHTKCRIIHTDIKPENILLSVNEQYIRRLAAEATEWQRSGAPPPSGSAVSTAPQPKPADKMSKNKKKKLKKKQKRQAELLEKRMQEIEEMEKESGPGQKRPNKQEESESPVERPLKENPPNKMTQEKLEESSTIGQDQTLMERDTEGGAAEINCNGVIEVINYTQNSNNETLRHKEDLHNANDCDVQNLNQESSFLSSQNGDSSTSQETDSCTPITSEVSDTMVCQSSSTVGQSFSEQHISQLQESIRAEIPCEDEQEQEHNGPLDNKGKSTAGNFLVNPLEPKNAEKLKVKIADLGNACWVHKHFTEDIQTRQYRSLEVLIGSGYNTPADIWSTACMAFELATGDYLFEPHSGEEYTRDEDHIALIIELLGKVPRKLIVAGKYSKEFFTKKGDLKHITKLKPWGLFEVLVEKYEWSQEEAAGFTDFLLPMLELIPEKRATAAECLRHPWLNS

[5] = target: Serine/threonine-protein kinase/endoribonuclease IRE1 (Homo sapiens) (UniProt O75460); details: Compound concentration 1000.0 nM
[6] = target: Mitogen-activated protein kinase 12 (Homo sapiens) (UniProt P53778); details: Compound concentration 1000.0 nM
[7] = target: Serine/threonine-protein kinase DCLK1 (Homo sapiens) (UniProt O15075); details: Compound concentration 1000.0 nM
Serine/threonine-protein kinase DCLK1 (Homo sapiens), sequence (O15075 whole entry): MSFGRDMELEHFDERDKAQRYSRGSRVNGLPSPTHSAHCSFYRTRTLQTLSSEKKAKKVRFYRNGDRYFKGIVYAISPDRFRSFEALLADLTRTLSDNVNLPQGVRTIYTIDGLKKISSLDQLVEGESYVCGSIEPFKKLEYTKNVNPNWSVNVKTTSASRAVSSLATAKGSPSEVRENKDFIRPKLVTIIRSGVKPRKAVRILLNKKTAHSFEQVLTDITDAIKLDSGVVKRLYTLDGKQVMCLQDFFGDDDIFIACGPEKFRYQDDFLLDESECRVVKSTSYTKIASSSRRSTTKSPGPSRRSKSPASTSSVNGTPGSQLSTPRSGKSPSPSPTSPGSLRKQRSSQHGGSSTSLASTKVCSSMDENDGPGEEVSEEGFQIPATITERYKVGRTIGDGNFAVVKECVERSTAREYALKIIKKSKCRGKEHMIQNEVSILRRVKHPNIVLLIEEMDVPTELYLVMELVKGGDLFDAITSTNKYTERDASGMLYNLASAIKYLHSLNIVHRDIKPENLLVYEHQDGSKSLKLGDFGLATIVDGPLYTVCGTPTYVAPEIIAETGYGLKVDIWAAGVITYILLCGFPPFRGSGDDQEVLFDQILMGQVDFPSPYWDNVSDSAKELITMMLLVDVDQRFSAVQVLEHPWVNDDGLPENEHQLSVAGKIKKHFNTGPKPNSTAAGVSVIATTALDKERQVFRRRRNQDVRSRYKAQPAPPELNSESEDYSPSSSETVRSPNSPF

[8] = target: Tyrosine-protein kinase Fes/Fps (Homo sapiens) (UniProt P07332); details: Compound concentration 1000.0 nM
[9] = target: Fibroblast growth factor receptor 2 (Homo sapiens) (UniProt P21802); details: Compound concentration 1000.0 nM
Fibroblast growth factor receptor 2 (Homo sapiens), sequence (P21802 22-821 limits assumed): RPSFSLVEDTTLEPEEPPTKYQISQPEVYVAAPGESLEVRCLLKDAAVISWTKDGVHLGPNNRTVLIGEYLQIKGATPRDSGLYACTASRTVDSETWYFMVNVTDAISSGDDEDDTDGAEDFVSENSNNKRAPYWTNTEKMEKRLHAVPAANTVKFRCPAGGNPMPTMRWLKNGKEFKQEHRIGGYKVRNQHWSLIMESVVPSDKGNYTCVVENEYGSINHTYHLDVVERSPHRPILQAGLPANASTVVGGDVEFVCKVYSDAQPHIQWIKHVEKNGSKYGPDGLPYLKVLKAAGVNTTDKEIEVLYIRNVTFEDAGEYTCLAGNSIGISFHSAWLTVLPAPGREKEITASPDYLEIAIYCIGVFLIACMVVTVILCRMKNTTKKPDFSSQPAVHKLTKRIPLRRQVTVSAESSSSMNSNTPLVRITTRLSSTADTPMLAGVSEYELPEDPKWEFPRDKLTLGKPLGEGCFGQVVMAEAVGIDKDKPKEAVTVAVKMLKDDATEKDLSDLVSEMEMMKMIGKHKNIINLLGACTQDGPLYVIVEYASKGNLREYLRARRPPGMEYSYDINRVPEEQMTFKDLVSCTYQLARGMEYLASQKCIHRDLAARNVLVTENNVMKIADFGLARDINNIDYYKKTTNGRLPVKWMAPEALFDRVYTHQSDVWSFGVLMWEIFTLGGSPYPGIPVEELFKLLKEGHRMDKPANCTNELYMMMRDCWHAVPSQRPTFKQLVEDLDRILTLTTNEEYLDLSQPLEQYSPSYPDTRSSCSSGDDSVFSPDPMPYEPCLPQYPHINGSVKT

[10] = target: Receptor-interacting serine/threonine-protein kinase 1 (Homo sapiens) (UniProt Q13546); details: Compound concentration 1000.0 nM
[11] = target: cAMP-dependent protein kinase catalytic subunit PRKX (Homo sapiens) (UniProt P51817); details: Compound concentration 1000.0 nM
[12] = test system: Epidermal growth factor receptor (Homo sapiens), P00533 [UNDEFINED MUTATION]; details: Compound concentration 1000.0 nM
Epidermal growth factor receptor (Homo sapiens), P00533 [UNDEFINED MUTATION], sequence (P00533 whole entry, looked up, stated change not applied): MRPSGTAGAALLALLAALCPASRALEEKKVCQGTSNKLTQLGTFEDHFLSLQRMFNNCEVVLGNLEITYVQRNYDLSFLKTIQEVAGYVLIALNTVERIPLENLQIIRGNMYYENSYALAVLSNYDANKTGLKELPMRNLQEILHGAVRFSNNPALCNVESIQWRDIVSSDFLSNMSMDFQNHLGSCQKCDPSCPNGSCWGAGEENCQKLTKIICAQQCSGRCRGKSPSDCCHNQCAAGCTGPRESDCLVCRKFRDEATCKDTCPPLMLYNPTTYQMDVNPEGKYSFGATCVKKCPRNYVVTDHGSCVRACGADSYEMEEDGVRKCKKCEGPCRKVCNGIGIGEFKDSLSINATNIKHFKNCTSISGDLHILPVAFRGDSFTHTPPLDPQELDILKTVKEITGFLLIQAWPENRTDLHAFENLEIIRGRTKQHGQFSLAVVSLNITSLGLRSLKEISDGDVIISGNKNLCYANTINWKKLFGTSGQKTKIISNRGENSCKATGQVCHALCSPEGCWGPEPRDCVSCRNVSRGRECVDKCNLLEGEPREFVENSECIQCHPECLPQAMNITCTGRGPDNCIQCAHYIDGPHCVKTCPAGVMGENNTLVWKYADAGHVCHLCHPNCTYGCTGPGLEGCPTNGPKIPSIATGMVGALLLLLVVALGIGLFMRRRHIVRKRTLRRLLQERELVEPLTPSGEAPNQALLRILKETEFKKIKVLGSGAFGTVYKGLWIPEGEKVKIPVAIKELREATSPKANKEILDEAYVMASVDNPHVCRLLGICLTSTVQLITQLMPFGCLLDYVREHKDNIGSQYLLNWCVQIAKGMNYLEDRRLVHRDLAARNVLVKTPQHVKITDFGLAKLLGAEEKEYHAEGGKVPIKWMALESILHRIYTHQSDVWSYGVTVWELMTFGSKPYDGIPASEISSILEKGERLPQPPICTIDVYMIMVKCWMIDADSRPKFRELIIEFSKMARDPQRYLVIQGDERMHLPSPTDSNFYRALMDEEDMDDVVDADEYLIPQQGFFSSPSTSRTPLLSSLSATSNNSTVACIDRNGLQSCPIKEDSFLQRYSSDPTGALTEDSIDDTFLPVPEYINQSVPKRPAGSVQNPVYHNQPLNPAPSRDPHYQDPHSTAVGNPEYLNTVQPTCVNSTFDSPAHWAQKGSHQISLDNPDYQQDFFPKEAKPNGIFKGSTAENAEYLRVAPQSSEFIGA

[13] = target: Serine/threonine-protein kinase SBK1 (Homo sapiens) (UniProt Q52WX2); details: Compound concentration 1000.0 nM
[14] = target: MAP/microtubule affinity-regulating kinase 3 (Homo sapiens) (UniProt P27448); details: Compound concentration 1000.0 nM
[15] = test system: Epidermal growth factor receptor (Homo sapiens), P00533 [UNDEFINED MUTATION]; details: Compound concentration 1000.0 nM; remark: listed apart in the source
[16] = test system: Proto-oncogene tyrosine-protein kinase receptor Ret (Homo sapiens), P07949 [V804L]; details: Compound concentration 1000.0 nM
[17] = target: Hepatocyte growth factor receptor (Homo sapiens) (UniProt P08581); details: Compound concentration 1000.0 nM
[18] = target: Serine/threonine-protein kinase WNK1 (Homo sapiens) (UniProt Q9H4A3); details: Compound concentration 1000.0 nM
[19] = target: Urotensin-2 receptor (Homo sapiens) (UniProt Q9UKP6); test: UT (h) Eurofins-Cerep binding assay; design: ligand concentration 0.1 nM; details: filed as agonist, Compound concentration 10.0 uM
[20] = target: Membrane-associated tyrosine- and threonine-specific cdc2-inhibitory kinase (Homo sapiens) (UniProt Q99640); details: Compound concentration 1000.0 nM
[21] = target: Protein-tyrosine kinase 2-beta (Homo sapiens) (UniProt Q14289); details: Compound concentration 1000.0 nM
Protein-tyrosine kinase 2-beta (Homo sapiens), sequence (Q14289 whole entry, looked up): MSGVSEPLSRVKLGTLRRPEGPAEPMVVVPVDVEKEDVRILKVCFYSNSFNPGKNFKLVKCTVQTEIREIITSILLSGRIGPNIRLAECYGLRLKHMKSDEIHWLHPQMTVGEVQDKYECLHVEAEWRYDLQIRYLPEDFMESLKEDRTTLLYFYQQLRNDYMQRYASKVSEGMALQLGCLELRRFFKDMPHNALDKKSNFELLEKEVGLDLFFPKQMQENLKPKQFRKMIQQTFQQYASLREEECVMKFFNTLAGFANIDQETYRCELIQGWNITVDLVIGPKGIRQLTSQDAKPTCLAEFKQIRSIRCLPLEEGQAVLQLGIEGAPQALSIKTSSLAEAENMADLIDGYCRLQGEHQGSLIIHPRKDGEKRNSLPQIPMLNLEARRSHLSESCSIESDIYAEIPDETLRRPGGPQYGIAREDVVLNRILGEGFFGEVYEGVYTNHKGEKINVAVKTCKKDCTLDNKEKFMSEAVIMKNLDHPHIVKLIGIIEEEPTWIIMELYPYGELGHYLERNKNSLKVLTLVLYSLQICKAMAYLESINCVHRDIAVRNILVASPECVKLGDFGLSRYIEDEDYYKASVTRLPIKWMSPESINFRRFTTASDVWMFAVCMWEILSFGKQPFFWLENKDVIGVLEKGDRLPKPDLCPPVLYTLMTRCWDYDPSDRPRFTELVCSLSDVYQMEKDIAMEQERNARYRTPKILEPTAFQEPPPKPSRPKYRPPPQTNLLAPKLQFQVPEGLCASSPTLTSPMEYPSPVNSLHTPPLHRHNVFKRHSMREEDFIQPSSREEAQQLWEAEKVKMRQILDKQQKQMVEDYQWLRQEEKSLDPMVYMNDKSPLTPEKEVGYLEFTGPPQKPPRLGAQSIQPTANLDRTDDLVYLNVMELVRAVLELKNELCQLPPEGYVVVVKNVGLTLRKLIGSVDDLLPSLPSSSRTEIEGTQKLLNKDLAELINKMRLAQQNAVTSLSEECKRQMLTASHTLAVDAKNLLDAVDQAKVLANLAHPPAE

[22] = target: Cyclin-dependent kinase 18 (Homo sapiens) (UniProt Q07002); details: Compound concentration 1000.0 nM
[23] = target: NT-3 growth factor receptor (Homo sapiens) (UniProt Q16288); details: Compound concentration 1000.0 nM
[24] = target: T1, Muscarinic acetylcholine receptor M2 (Homo sapiens) (UniProt P08172); test: M2 (h) Eurofins-Cerep binding assay; design: ligand concentration 2 nM; details: filed as antagonist, Compound concentration 10.0 uM
T1 sequence (whole entry): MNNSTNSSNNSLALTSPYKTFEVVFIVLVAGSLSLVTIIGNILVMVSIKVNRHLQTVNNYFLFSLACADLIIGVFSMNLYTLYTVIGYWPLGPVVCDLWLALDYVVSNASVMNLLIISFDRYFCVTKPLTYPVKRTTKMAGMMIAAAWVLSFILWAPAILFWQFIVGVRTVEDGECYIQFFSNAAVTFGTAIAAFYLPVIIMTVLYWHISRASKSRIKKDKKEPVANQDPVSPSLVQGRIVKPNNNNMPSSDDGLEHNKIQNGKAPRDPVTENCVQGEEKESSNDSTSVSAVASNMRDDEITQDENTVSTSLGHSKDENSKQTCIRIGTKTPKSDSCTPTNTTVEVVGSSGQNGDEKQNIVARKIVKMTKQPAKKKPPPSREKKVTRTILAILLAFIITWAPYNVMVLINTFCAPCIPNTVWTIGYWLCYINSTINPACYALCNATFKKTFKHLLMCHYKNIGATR

[25] = target: Type-1 angiotensin II receptor (Homo sapiens) (UniProt P30556); test: AT1 (h) Eurofins-Cerep binding assay; design: ligand concentration 0.05 nM; details: filed as antagonist, Compound concentration 10.0 uM
[26] = target: Protein kinase C delta type (Homo sapiens) (UniProt Q05655); details: Compound concentration 1000.0 nM
[27] = target: Homeodomain-interacting protein kinase 2 (Homo sapiens) (UniProt Q9H2X6); details: Compound concentration 1000.0 nM
[28] = target: Tyrosine-protein kinase TXK (Homo sapiens) (UniProt P42681); details: Compound concentration 1000.0 nM
[29] = target: Ribosomal protein S6 kinase alpha-6 (Homo sapiens) (UniProt Q9UK32); details: Compound concentration 1000.0 nM
[30] = target: Tyrosine-protein kinase Fgr (Homo sapiens) (UniProt P09769); details: Compound concentration 1000.0 nM
Tyrosine-protein kinase Fgr (Homo sapiens), sequence (P09769 2-529 limits assumed): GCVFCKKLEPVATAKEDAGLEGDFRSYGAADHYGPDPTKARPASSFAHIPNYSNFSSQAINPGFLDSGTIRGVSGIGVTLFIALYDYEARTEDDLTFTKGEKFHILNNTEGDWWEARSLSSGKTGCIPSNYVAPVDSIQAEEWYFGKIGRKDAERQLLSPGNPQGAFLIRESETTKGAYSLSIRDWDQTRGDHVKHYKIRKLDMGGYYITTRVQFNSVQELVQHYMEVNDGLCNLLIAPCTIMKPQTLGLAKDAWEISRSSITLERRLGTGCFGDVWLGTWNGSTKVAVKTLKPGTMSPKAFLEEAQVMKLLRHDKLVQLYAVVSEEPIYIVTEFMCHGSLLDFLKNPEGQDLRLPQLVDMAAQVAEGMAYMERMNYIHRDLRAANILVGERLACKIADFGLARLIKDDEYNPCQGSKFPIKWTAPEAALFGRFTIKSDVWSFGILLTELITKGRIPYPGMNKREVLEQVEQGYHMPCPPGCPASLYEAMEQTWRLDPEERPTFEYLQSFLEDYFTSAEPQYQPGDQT

[31] = target: Homeodomain-interacting protein kinase 3 (Homo sapiens) (UniProt Q9H422); details: Compound concentration 1000.0 nM
[32] = target: Serine/threonine-protein kinase 24 (Homo sapiens) (UniProt Q9Y6E0); details: Compound concentration 1000.0 nM
[33] = target: Dual specificity mitogen-activated protein kinase kinase 5 (Homo sapiens) (UniProt Q13163); details: Compound concentration 1000.0 nM
[34] = target: Cannabinoid receptor 2 (Homo sapiens) (UniProt P34972); test: CB2 (h) Eurofins-Cerep binding assay; design: ligand concentration 0.8 nM; details: filed as agonist, Compound concentration 10.0 uM
[35] = target: Serine/threonine-protein kinase tousled-like 2 (Homo sapiens) (UniProt Q86UE8); details: Compound concentration 1000.0 nM
[36] = target: Protein kinase C eta type (Homo sapiens) (UniProt P24723); details: Compound concentration 1000.0 nM
[37] = target: Tyrosine-protein kinase Lyn (Homo sapiens) (UniProt P07948); details: Compound concentration 1000.0 nM
[38] = target: Serine/threonine-protein kinase 35 (Homo sapiens) (UniProt Q8TDR2); details: Compound concentration 1000.0 nM
[39] = target: Serine/threonine-protein kinase mTOR (Homo sapiens) (UniProt P42345); details: Compound concentration 1000.0 nM

| SMILES | residual activity [1] [%] | residual activity [2] [%] | residual activity [3] [%] | residual activity [4] [%] | residual activity [5] [%] | residual activity [6] [%] | residual activity [7] [%] | residual activity [8] [%] | residual activity [9] [%] | residual activity [10] [%] | residual activity [11] [%] | residual activity [12] [%] | residual activity [13] [%] | residual activity [14] [%] | residual activity [15] [%] | residual activity [16] [%] | residual activity [17] [%] | residual activity [18] [%] | % Inhibition of Control Specific Binding (Mean n=2) [19] [%] | residual activity [20] [%] | other results |
| --- | --- | --- | --- | --- | --- | --- | --- | --- | --- | --- | --- | --- | --- | --- | --- | --- | --- | --- | --- | --- | --- |
| CCCOc1ccc([C@H]2[C@H](C(=O)O)[C@@H](c3ccc4c(c3)OCO4)CN2CC(=O)Nc2c(CC)cccc2CC)cc1 [A-192621] | 78 | 78 | 92 | 95 | 86 | 73 | 75 | 96 | 100 | 88 | 91 | 100 | 78 | 100 | 100 | 93 | 100 | 89 | 23.9 | 74 | residual activity [21]: 98%; residual activity [22]: 100%; residual activity [23]: 71%; % Inhibition of Control Specific Binding (Mean n=2) [24]: -8.8%; % Inhibition of Control Specific Binding (Mean n=2) [25]: 1.5%; residual activity [26]: 100%; residual activity [27]: 66%; residual activity [28]: 85%; residual activity [29]: 78%; residual activity [30]: 98%; residual activity [31]: 74%; residual activity [32]: 84%; residual activity [33]: 63%; % Inhibition of Control Specific Binding (Mean n=2) [34]: 33.6%; residual activity [35]: 94%; residual activity [36]: 100%; residual activity [37]: 90%; residual activity [38]: 92%; residual activity [39]: 77% |
| CCCOc1ccc([C@@H]2[C@@H](C(=O)O)[C@H](c3ccc4c(c3)OCO4)CN2CC(=O)Nc2c(CC)cccc2CC)cc1 [A-1806262] | 82 | 80 | 92 | 94 | 90 | 100 | 80 | 97 | 100 | 55 | 89 | 100 | 81 | 100 | 100 | 97 | 92 | 91 | 9.4 | 100 | residual activity [21]: 97%; residual activity [22]: 100%; residual activity [23]: 91%; % Inhibition of Control Specific Binding (Mean n=2) [24]: -7.1%; % Inhibition of Control Specific Binding (Mean n=2) [25]: -3.8%; residual activity [26]: 100%; residual activity [27]: 80%; residual activity [28]: 100%; residual activity [29]: 91%; residual activity [30]: 93%; residual activity [31]: 85%; residual activity [32]: 74%; residual activity [33]: 100%; % Inhibition of Control Specific Binding (Mean n=2) [34]: 14.6%; residual activity [35]: 100%; residual activity [36]: 100%; residual activity [37]: 96%; residual activity [38]: 98%; residual activity [39]: 100% |
